This note sets out measurements from paper PMC8761492 (Life Science Alliance, 2022).

In the assay the test system is SARS-CoV-2 B.1.1.7. As to the kind of experiment: microbe, parasite or virus in culture. The assay is classed as cell-based. Conditions: Severe acute respiratory syndrome coronavirus 2, Caco-2, pretreated 2 h, 24 h, mean ± SEM.

Usually IC50 stands for the concentration that inhibits the measured activity by half.

Turning to `CCC(CC)COC(=O)[C@H](C)N[P@](=O)(OC[C@H]1O[C@@](C#N)(c2ccc3c(N)ncnn23)[C@H](O)[C@@H]1O)Oc1ccccc1` [Remdesivir], the IC50 is 23 nM.
